From patent publication US20260041744A1, “Methods for Treating Pompe Disease” (Amicus Therapeutics, Inc., priority 2022, published 2026)
“Also recorded” adds a separate entry of the source.

Tests used:
[1] = test system: adults with Pompe disease; assay: Study ATB200-02: patient-reported outcomes (FSS, R-PAct, RHS); assay type: in vivo, human
Excerpt: Favorable findings observed through 48 months of treatment in 6MWD and FVC are bolstered by favorable directional trends in several other secondary endpoints for muscle strength, motor function, and respiratory function.
PROs supported the improvements observed for motor function, muscle strength and pulmonary function tests. […] SGIC outcomes for overall physical wellbeing improved in most patients across all cohorts after 48 months of follow up (Table 26C). PGIC results indicated an improvement or stabilization for all cohorts after 48 months of follow up and supported the results of other efficacy outcomes (Table 26C).
One patient reported no change, and one reported an improvement from baseline in SGIC overall physical wellbeing.

[2] = test system: adult subjects with late-onset Pompe disease (LOPD); assay: Study ATB200-03 (PROPEL): sitting % predicted FVC; assay type: in vivo, human; details: for absolute decline in percent-predicted FVC: 52 weeks; for CHG to Week 52 in sitting % predicted FVC, LS Mean: MMRM, actual time point of assessments; for Sitting % predicted FVC CHG, LS means (SE): Week 52, ANCOVA
Procedure: The test for the primary endpoint was conducted first at the 1-sided 0.025 significance level, and if significant, the ordered key secondary endpoints were similarly tested at the same significance level. The statistical significance of the key secondary endpoints was interpreted following a hierarchical testing order, each at the 1-sided alpha level of 0.025. […] Primary analyses of efficacy were performed using the mixed-effect model for repeated measures (MMRM) for 6MWD in Intent-to-treat Observed Population (ITT) that includes all available, observed data without any missing data imputation (ITT-OBS) and analysis of covariance (ANCOVA) for all other endpoints in the Intent-to-Treat-Last Observation Carried Forward (ITT-LOCF) Population. A nonparametric randomization based ANCOVA was specified as the first sensitivity analysis for 6MWD and FVC. […] For the purposes of data presentation in this document, 2-sided p-values are reported hereafter, except as otherwise noted.

[3] = Ambulatory ERT-experienced, 12 months
[4] = Ambulatory ERT-experienced, 24 months
[5] = Ambulatory ERT-experienced, 36 months
[6] = Ambulatory ERT-experienced, 48 months
[7] = Ambulatory ERT-naïve, 12 months
[8] = Ambulatory ERT-naïve, 24 months
[9] = Ambulatory ERT-naïve, 36 months
[10] = Ambulatory ERT-naïve, 48 months
[11] = Non-ambulatory ERT-experienced, 12 months
[12] = Non-ambulatory ERT-experienced, 24 months
[13] = Non-ambulatory ERT-experienced, 36 months
[14] = Non-ambulatory ERT-experienced, 48 months
[15] = Baseline, ITT, ERT-naïve Population excluding Subject 4005-2511
[16] = Week 52-LOCF, ERT-experienced Population
[17] = Week 52-LOCF, ERT-naïve Population excluding Subject 4005-2511
[18] = Week 52-LOCF, ITT excluding Subject 4005-2511

“ATB200/miglustat: two-component therapy: cipaglucosidase alfa (ATB200) administered in conjunction with miglustat (AT2221), a stabilizer of cipaglucosidase alfa” was tested, and the “patient-reported outcomes FSS, R-PAct, RHS” value ([1]; 48 months, listed as cipaglucosidase alfa/miglustat) was “meaningful improvements in subject-perceived fatigue, ability to perform daily life activities, and overall physical well-being; also recorded: all ambulatory patients reported stable R-PAct scores and RHS compared with baseline scores; also recorded: improved FSS and stable RHS scores compared with baseline”, the “Fatigue Severity Scale, CFBL mean” value [1, 3] was −2.9 and the “Rasch-built Pompe-specific Activity, CFBL mean” value [1, 3] was 1.3. For the same substance, the “Rotterdam Handicap Scale, CFBL mean” value [1, 3] was −0.3, the “Fatigue Severity Scale, CFBL mean” value [1, 4] was −3.1 and the “Rasch-built Pompe-specific Activity, CFBL mean” value [1, 4] was 2.2. The “Rotterdam Handicap Scale, CFBL mean” value [1, 4] was −1.1, the “Fatigue Severity Scale, CFBL mean” value [1, 5] was 1.4 and the “Rasch-built Pompe-specific Activity, CFBL mean” value [1, 5] was −0.1. The “Rotterdam Handicap Scale, CFBL mean” value [1, 5] was −2.3, the “Fatigue Severity Scale, CFBL mean” value [1, 6] was −3.4 and the “Rasch-built Pompe-specific Activity, CFBL mean” value [1, 6] was −0.3. The “Rotterdam Handicap Scale, CFBL mean” value [1, 6] was −2.3, the “Fatigue Severity Scale, CFBL mean” value [1, 7] was −6.3 and the “Rasch-built Pompe-specific Activity, CFBL mean” value [1, 7] was 2.0. For the same substance, the “Rotterdam Handicap Scale, CFBL mean” value [1, 7] was −0.4, the “Fatigue Severity Scale, CFBL mean” value [1, 8] was −5.5 and the “Rasch-built Pompe-specific Activity, CFBL mean” value [1, 8] was 2.2. For the same substance, the “Rotterdam Handicap Scale, CFBL mean” value [1, 8] was −0.4, the “Fatigue Severity Scale, CFBL mean” value [1, 9] was −6.2 and the “Rasch-built Pompe-specific Activity, CFBL mean” value [1, 9] was 1.4. For the same substance, the “Rotterdam Handicap Scale, CFBL mean” value [1, 9] was −1.2, the “Fatigue Severity Scale, CFBL mean” value [1, 10] was 1.2 and the “Rasch-built Pompe-specific Activity, CFBL mean” value [1, 10] was −0.6. The “Rotterdam Handicap Scale, CFBL mean” value [1, 10] was −1.3, the “Fatigue Severity Scale, CFBL mean” value [1, 11] was −9.2 and the “Rasch-built Pompe-specific Activity, CFBL mean” value [1, 11] was 1.4. The “Rotterdam Handicap Scale, CFBL mean” value [1, 11] was 0.6, the “Fatigue Severity Scale, CFBL mean” value [1, 12] was −23.0 and the “Rasch-built Pompe-specific Activity, CFBL mean” value [1, 12] was 0.8. The “Rotterdam Handicap Scale, CFBL mean” value [1, 12] was 0.6, the “Fatigue Severity Scale, CFBL mean” value [1, 13] was −10.0 and the “Rasch-built Pompe-specific Activity, CFBL mean” value [1, 13] was 0.8. The “Rotterdam Handicap Scale, CFBL mean” value [1, 13] was 0.6, the “Fatigue Severity Scale, CFBL mean” value [1, 14] was −12.0 and the “Rasch-built Pompe-specific Activity, CFBL mean” value [1, 14] was 2.0. For the same substance, the “Rotterdam Handicap Scale, CFBL mean” value [1, 14] was −1.5.
In the case of alglucosidase alfa [reference compound], the “Sitting % Predicted FVC Absolute Value, Mean” value [2, 15] is reported as 79.07 % predicted, the “Sitting % predicted FVC Absolute Value, Median” value [2, 15] is reported as 93.50 % predicted and the “FVC (% predicted) CFBL at Week 52” value ([2]; ERT switch (ERT-experienced) population) is reported as −4.0 (0.9) % predicted. The “FVC (% predicted) CFBL at Week 52” value ([2]; ERT treatment naive population) was −3.6 % predicted, the “FVC (% predicted) CFBL at Week 52” value ([2]; ERT treatment naive population, listed as Alglucosidase alfa) was −3.6 (1.8) % predicted and the “absolute decline in percent-predicted FVC” value ([2]; ERT-experienced) was 4.0%. The “mean change in sitting % predicted FVC from baseline to Week 52” value ([2]; ERT-naïve excluding Subject 4005-2511) was −3.6%, the “Change in sitting % predicted FVC baseline to Week 52, LS means (SE) from ANCOVA” value ([2]; ITT-LOCF, ERT-naïve Population excluding Subject 4005-2511) was −2.54 (2.758) % predicted and the “CHG to Week 52 in sitting % predicted FVC, LS Mean” value ([2]; ITT-OBS excluding Subject 4005-2511 (overall)) was −3.7. The “CHG to Week 52 in sitting % predicted FVC, LS Mean” value ([2]; ITT-OBS excluding Subject 4005-2511, ERT-naïve Subjects) was −2.4, the “CHG to Week 52 in sitting % predicted FVC, LS Mean” value ([2]; ITT-OBS, ERT-experienced Subjects) was −3.8 and the “Sitting % predicted FVC Absolute Value, Mean (SD)” value [2, 16] was 63.47 (20.480) % predicted. For the same substance, the “Sitting % predicted FVC Absolute Value, Median” value [2, 16] was 62.00 % predicted, the “Sitting % predicted FVC CHG, Mean (SD)” value [2, 16] was −4.02 (5.009) % predicted and the “Sitting % predicted FVC CHG, Median” value [2, 16] was −3.25 % predicted. For the same substance, the “Sitting % Predicted FVC Absolute Value, Mean” value [2, 17] was 75.43 % predicted, the “Sitting % Predicted FVC CHG (change from baseline), Mean” value [2, 17] was −3.64 % predicted and the “Sitting % Predicted FVC CHG (change from baseline), Median” value [2, 17] was −3.00 % predicted. For the same substance, the “Sitting % predicted FVC Absolute Value, Median” value [2, 17] was 85.00 % predicted, the “Sitting % predicted FVC Absolute Value, Mean (SD)” value [2, 18] was 65.73 (21.109) % predicted and the “Sitting % predicted FVC Absolute Value, Median” value [2, 18] was 69.00 % predicted. For the same substance, the “Sitting % predicted FVC CHG, Mean (SD)” value [2, 18] was −3.95 (4.892) % predicted, the “Sitting % predicted FVC CHG, Median” value [2, 18] was −3.00 % predicted and the “Sitting % predicted FVC CHG, LS means (SE)” value ([2]; ITT-LOCF excluding Subject 4005-2511) was −3.70 (0.953) % predicted. For the same substance, the “Sitting % predicted FVC CHG, LS means (SE)” value ([2]; ITT-LOCF, ERT-experienced Population) was −3.64 (1.019) % predicted, the “FVC (% predicted) CFBL at Week 52” value ([2]; overall ERT switch + ERT naïve population) was −4.0 (0.8) % predicted and the “absolute decline in percent-predicted FVC” value ([2]; overall population) was 4.0%.
